What follows are compounds tested against PIK3CG (human) (UniProt P48736) (assay: Assessment of PIK3CG Kinase Activity).
Sequence of PIK3CG (human) (P48736 whole entry, looked up): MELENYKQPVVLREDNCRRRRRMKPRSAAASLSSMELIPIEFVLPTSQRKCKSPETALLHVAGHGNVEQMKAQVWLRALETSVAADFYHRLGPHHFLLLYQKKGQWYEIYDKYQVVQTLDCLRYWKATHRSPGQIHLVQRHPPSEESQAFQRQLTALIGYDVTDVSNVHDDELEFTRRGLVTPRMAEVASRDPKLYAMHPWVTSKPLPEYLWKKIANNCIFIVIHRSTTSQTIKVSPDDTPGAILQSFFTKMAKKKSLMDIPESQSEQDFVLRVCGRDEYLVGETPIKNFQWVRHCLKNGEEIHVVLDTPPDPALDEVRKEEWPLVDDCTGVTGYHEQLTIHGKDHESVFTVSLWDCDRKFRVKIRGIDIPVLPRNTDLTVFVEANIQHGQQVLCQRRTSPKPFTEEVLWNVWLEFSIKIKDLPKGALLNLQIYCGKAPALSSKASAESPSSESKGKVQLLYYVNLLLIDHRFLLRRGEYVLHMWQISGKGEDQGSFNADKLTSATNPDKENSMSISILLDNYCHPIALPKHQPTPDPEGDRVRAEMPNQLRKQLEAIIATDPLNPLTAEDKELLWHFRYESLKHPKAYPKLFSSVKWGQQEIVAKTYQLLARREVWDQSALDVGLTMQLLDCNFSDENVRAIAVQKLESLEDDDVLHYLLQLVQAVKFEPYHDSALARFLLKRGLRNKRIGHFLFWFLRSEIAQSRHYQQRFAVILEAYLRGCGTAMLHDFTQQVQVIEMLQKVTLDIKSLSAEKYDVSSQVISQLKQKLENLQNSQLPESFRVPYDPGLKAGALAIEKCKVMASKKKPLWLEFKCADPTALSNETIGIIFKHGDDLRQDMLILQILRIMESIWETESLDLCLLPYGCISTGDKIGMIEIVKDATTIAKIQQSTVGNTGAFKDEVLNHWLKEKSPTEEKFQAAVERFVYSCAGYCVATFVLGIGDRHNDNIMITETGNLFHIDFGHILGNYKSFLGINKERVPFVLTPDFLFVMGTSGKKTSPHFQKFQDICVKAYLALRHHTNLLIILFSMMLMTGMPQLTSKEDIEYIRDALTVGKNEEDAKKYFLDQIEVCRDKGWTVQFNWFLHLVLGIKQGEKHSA
`CCc1noc(CCNC(=O)Nc2nc3c(s2)-c2c(c(-c4cncnc4)nn2-c2ccccc2Cl)CC3)n1` was tested, and the IC50 was less than 800 nM. `CN1CCN(Cc2cccc(NC(=O)Nc3nc4c(s3)-c3c(c(-c5cncnc5)nn3-c3ccccc3F)CC4)c2)CC1` was tested, and the IC50 was less than 800 nM. Compound `CN(C)CCNC(=O)Nc1nc2c(s1)-c1c(c(-c3cccnc3)nn1-c1ccccc1Cl)CC2` has an IC50 of less than 800 nM. In the case of `CC(C)(CNc1ccc(C(C)(C)C)cc1)NC(=O)Nc1nc2c(s1)-c1c(c(-c3cccnc3)nn1-c1ccccc1Cl)CC2`, the IC50 is reported as less than 800 nM. `CCN(CC)CCNC(=O)Nc1nc2c(s1)-c1c(c(-c3cncnc3)nn1-c1ccccc1F)CC2` was tested, and the IC50 was less than 800 nM. Compound `CS(=O)(=O)c1cccc(CNC(=O)Nc2nc3c(s2)-c2c(c(-c4cncnc4)nn2-c2ccccc2Cl)CC3)c1` has an IC50 of less than 800 nM. Compound `CCc1csc(CCNC(=O)Nc2nc3c(s2)-c2c(c(C4CC4)nn2-c2ccccc2Cl)CC3)n1` has an IC50 of less than 800 nM. In the case of `CCc1cnc(CCNC(=O)Nc2nc3c(s2)-c2c(c(-c4ccccc4)nn2-c2cccc(Cl)c2)CC3)o1`, the IC50 is reported as less than 800 nM. `CC(C)c1nnc(CCNC(=O)Nc2nc3c(s2)-c2c(c(-c4ccccc4)nn2-c2cccc(Cl)c2)CC3)o1` was tested, and the IC50 was less than 800 nM. With `O=C(NCCc1cn[nH]c1)Nc1nc2c(s1)-c1c(c(-c3cccnc3)nn1-c1ccccc1Cl)CC2` the IC50 was less than 800 nM. With `Nc1c(Br)cc(OCC2CCN(C(=O)Nc3nc4c(s3)-c3c(c(-c5cccnc5)nn3-c3ccccc3Cl)CC4)C2)cc1Br` (stereo not given) the IC50 was less than 800 nM. Compound `CN(Cc1cccc(CNC(=O)Nc2nc3c(s2)-c2c(c(-c4cccnc4)nn2-c2ccccc2Cl)CC3)c1)C(=O)OC(C)(C)C` has an IC50 of less than 800 nM. `CC(C)c1cnc(CCNC(=O)Nc2nc3c(s2)-c2c(c(C4CC4)nn2-c2ccccc2Cl)CC3)o1` showed an IC50 of less than 800 nM. `Cn1cc(CCNC(=O)Nc2nc3c(s2)-c2c(c(-c4cncnc4)nn2-c2ccccc2Cl)CC3)cn1` was tested, and the IC50 was less than 800 nM. For `Cn1cc(CNC(=O)Nc2nc3c(s2)-c2c(c(-c4cccnc4)nn2-c2ccccc2Cl)CC3)cn1`, the IC50 was less than 800 nM.
